Columns and labels:
[1] = Measurement of fluorescent property of compound; assay type: physicochemical; settings: 5 μM DMSO solution
Procedure: The excitation wavelength and fluorescence wavelength of the compound were measured by a FL4500 spectrofluorometric measuring machine manufactured by Hitachi High-Technologies Corporation.

[2] = system: Human chronic myelocytic leukemia cells, K562, ALDH (+) fraction (cancer stem cells); test: Cancer stem-cell selective inhibitory action against chronic myelocytic leukemia cells, ALDH (+) fraction; assay type: cell-based; settings: 24 hours
Procedure: Human chronic myelocytic leukemia cells, K562, were pre-cultured in RPMI1640 medium containing 10% FBS at 37° C. in a 5% CO2 ambient. Then, a fraction containing 80% or more of cancer stem cells was extracted by use of a cancer stem cell marker, ALDEFLUOR reagent (manufactured by VERITAS Corporation) and FACSAria flow cytometry (manufactured by Nippon Becton, Dickinson and Company). […] The cultured cells were analyzed for viable cell count according to CellTiter-Glo Luminescent Cell Viability Assay (manufactured by Promega KK.). […] Note that hereinafter, an ALDEFLUOR reagent positive fraction (deemed as cancer stem cells) is represented by ALDH (+), whereas an ALDEFLUOR reagent negative fraction (not deemed as cancer stem cells) is represented by ALDH (−), in some cases.
Further, the growth suppressive effect of cancer stem cells was evaluated based on the following criteria. Note that the growth rate in Examples is a value obtained by dividing viable cell count after culture by the number of cells at the initiation time of culture.

[3] = system: Human pancreas cancer cells, KLM-1; test: Cancer cell inhibitory (growth suppressive) action against pancreatic cancer cells, CellTiter-Glo viable cell count; settings: KLM-1, 10 μg/mL, 24 hours
Procedure: Human pancreas cancer cells, KLM-1, were pre-cultured in RPMI1640 medium containing 10% FBS at 37° C. in a 5% CO2 ambient. Thereafter, 4,000 cells were seeded per well of a 96-well plate and further cultured for 24 hours. […] The cultured cells were analyzed for viable cell count according to CellTiter-Glo Luminescent Cell Viability Assay (manufactured by Promega KK.).
Evaluation of cancer cell inhibition against the pancreatic cancer cells (KLM-1) (growth suppression) was made based on the following criteria. Note that the growth rate used in Examples refers to the rate (expressed by percentage) of viable cell count after culture relative to the number of cells at the initiation of cell culture.

[4] = system: Prostatic cancer cells, PC-3; test: Cancer cell inhibitory (growth suppressive) action against prostatic cancer cells, CellTiter-Glo viable cell count; assay type: cell-based; settings: PC-3, 10 μg/mL, 24 hours
Procedure: Prostatic cancer cells, PC-3, were pre-cultured in RPMI1640 medium containing 10% FBS at 37° C. in a 5% CO2 ambient. Thereafter, 4,000 cells were seeded per well of a 96-well plate and further cultured for 24 hours. Subsequently, Compound (1) was added to the medium so as to obtain a final concentration of 10 μg/mL and cultured at 37° C. for 24 hours in a 5% CO2 ambient. The cultured cells were analyzed for viable cell count according to Cell Titer-Glo Luminescent Cell Viability Assay (manufactured by Promega KK.).
Viable cell count was analyzed in the same manner as in Experimental Example 24 except that Compound (1) of Experimental Example 24 was changed to each compound shown in Table 2.
Viable cell count was analyzed in the same manner as in Experimental Example 24 except that Compound (1) of Experimental Example 24 was changed to each of Comparative compounds 1 to 4, to obtain growth rates.
Note that the growth rate used in Examples refers to the rate (expressed by percentage) of viable cell count after culture relative to the number of cells at the initiation of cell culture. Evaluation criteria are the same as in the above experiments.

## CCCCN1/C(=C/C=C2\CCCC(/C=C/C3=[N+](CCCC)c4ccccc4C3(C)C)=C2c2ccccc2)C(C)(C)c2ccccc21 [Compound 54]
[1]
  Excitation wavelength λex: 774 nm
  Fluorescence wavelength λem: 800 nm
[2]; K562, 10 μg/ml
  ALDH(+) Superiority evaluation: A (The value of the growth rate of ALDH (+)/the growth rate of ALDH (−) is less than 0.8)
  ALDH(+)/ALDH(−): 0.50

## CCCC[N+]1=C(/C=C/C2=C(Cl)C(=C/C=C3/N(C)c4ccccc4C3(C)C)/CCC2)C(C)(C)c2c1ccc1ccccc21 [Compound 51]
[2]; K562, 10 μg/ml
  ALDH(+) Superiority evaluation: A (The value of the growth rate of ALDH (+)/the growth rate of ALDH (−) is less than 0.8)
  ALDH(+)/ALDH(−): 0.27

## CN1/C(=C/C=C/C=C/C2=[N+](C)c3ccc4ccccc4c3C2(C)C)C(C)(C)c2cc(Cl)ccc21 [Compound 60]
[1]
  Excitation wavelength λex: 670 nm
  Fluorescence wavelength λem: 696 nm
[2]; K562, 10 μg/ml
  ALDH(+) Superiority evaluation: A (The value of the growth rate of ALDH (+)/the growth rate of ALDH (−) is less than 0.8)
  ALDH(+)/ALDH(−): 0.34

## CN1/C(=C\C=C\C2=[N+](C)c3ccc4ccccc4c3C2(C)C)C(C)(C)c2c1ccc1ccccc21 [Compound 20]
[3]
  Cancer cell growth rate (%): 1.2%
  Evaluation (cancer cell growth rate): A (Cancer cell growth rate is less than 20%)
[4]
  Cancer cell growth rate (%): 13.1%
  Evaluation (cancer cell growth rate): A (Cancer cell growth rate is less than 20%)

## CCC(/C=C1\Oc2ccccc2N1CC)=C\c1oc2ccccc2[n+]1CC [Compound 56]
[2]; K562, 10 μg/ml
  ALDH(+) Superiority evaluation: A (The value of the growth rate of ALDH (+)/the growth rate of ALDH (−) is less than 0.8)
  ALDH(+)/ALDH(−): 0.65

## CCCCCCCN1/C(=C\C=C\c2oc3ccccc3[n+]2CCCCCCC)Oc2ccccc21 [Compound 18]
[1]
  Excitation wavelength λex: 492 nm
  Fluorescence wavelength λem: 510 nm
[2]; K562, 10 μg/ml
  ALDH(+) Superiority evaluation: A (The value of the growth rate of ALDH (+)/the growth rate of ALDH (−) is less than 0.8)
  ALDH(+)/ALDH(−): 0.29

## CCC(=C\c1sc2ccc3ccccc3c2[n+]1CC)/C=C1/Sc2ccc3ccccc3c2N1CC [Compound 10]
[1]
  Excitation wavelength λex: 586 nm
  Fluorescence wavelength λem: 615 nm
[3]
  Cancer cell growth rate (%): 13.5%
  Evaluation (cancer cell growth rate): A (Cancer cell growth rate is less than 20%)

## CCN1/C(=C/C=C2\CCCC(/C=C/C3=[N+](CC)c4ccc(OC)cc4C3(C)C)=C2Cl)C(C)(C)c2cc(OC)ccc21 [Compound 40]
[1]
  Excitation wavelength λex: 819 nm
  Fluorescence wavelength λem: 825 nm
[3]
  Cancer cell growth rate (%): 14.1%
  Evaluation (cancer cell growth rate): A (Cancer cell growth rate is less than 20%)

## CCC(=C\c1oc2ccc(-c3ccccc3)cc2[n+]1CC)/C=C1/Oc2ccc(-c3ccccc3)cc2N1CC [Compound 57]
[2]; K562, 10 μg/ml
  ALDH(+) Superiority evaluation: B (The value of the growth rate of ALDH (+)/the growth rate of ALDH (−) is 0.8 or more and less than 0.95)
  ALDH(+)/ALDH(−): 0.81

## CCN1/C(=C\C(C)=C\c2sc3c4ccccc4ccc3[n+]2CC)Sc2c1ccc1ccccc21 [Compound 11]
[1]
  Excitation wavelength λex: 354 nm
  Fluorescence wavelength λem: 469 nm
[3]
  Cancer cell growth rate (%): 5.0%
  Evaluation (cancer cell growth rate): A (Cancer cell growth rate is less than 20%)
[4]
  Cancer cell growth rate (%): 4.3%
  Evaluation (cancer cell growth rate): A (Cancer cell growth rate is less than 20%)

## CCN1/C(=C/C=C/C=C/C=C/C2=[N+](CC)c3ccccc3C23CCCCC3)C2(CCCCC2)c2ccccc21 [Compound 31]
[3]
  Cancer cell growth rate (%): 30.5%
  Evaluation (cancer cell growth rate): B (Cancer cell growth rate is 20% or more and less than 50%)

## CCN1\C(=C/C=C/C=C/c2oc3ccccc3[n+]2CC)Oc2ccccc21 [Compound 28]
[1]
  Excitation wavelength λex: 589 nm
  Fluorescence wavelength λem: 614 nm
[2]; K562, 1 μg/ml
  ALDH(+) Superiority evaluation: B (The value of the growth rate of ALDH (+)/the growth rate of ALDH (−) is 0.8 or more and less than 0.95)
  ALDH(+)/ALDH(−): 0.83
[2]; K562, 10 μg/ml
  ALDH(+) Superiority evaluation: A (The value of the growth rate of ALDH (+)/the growth rate of ALDH (−) is less than 0.8)
  ALDH(+)/ALDH(−): 0.69

## CCC(/C=C1\Sc2ccccc2N1CC)=C\c1sc2ccccc2[n+]1CC.[I-] [Compound 4]
[1]
  Excitation wavelength λex: 563 nm
  Fluorescence wavelength λem: 569 nm
[3]
  Cancer cell growth rate (%): 3.1%
  Evaluation (cancer cell growth rate): A (Cancer cell growth rate is less than 20%)
[4]
  Cancer cell growth rate (%): 19.5%
  Evaluation (cancer cell growth rate): A (Cancer cell growth rate is less than 20%)

## CCN1/C(=C\C=C\c2ccc3ccccc3[n+]2CC)C=Cc2ccccc21.[I-] [Compound 47]
[1]
  Excitation wavelength λex: 615 nm
  Fluorescence wavelength λem: 637 nm
[3]
  Cancer cell growth rate (%): 8.6%
  Evaluation (cancer cell growth rate): A (Cancer cell growth rate is less than 20%)
[4]
  Cancer cell growth rate (%): 13.8%
  Evaluation (cancer cell growth rate): A (Cancer cell growth rate is less than 20%)

## CN1/C(=C/C=C2\CCCC(/C=C/C3=[N+](C)c4ccccc4C3(C)C)=C2Sc2ccccc2)C(C)(C)c2ccccc21 [Compound 59]
[1]
  Excitation wavelength λex: 804 nm
  Fluorescence wavelength λem: 520 nm
[2]; K562, 1 μg/ml
  ALDH(+) Superiority evaluation: A (The value of the growth rate of ALDH (+)/the growth rate of ALDH (−) is less than 0.8)
  ALDH(+)/ALDH(−): 0.67
[2]; K562, 10 μg/ml
  ALDH(+) Superiority evaluation: A (The value of the growth rate of ALDH (+)/the growth rate of ALDH (−) is less than 0.8)
  ALDH(+)/ALDH(−): 0.22

## CCC(=C\c1sc2c3ccccc3ccc2[n+]1CC)/C=C1/Sc2c(ccc3ccccc23)N1CC.[I-] [Compound 7]
[1]
  Excitation wavelength λex: 344 nm
  Fluorescence wavelength λem: 381 nm
[3]
  Cancer cell growth rate (%): 13.0%
  Evaluation (cancer cell growth rate): A (Cancer cell growth rate is less than 20%)
[4]
  Cancer cell growth rate (%): 15.3%
  Evaluation (cancer cell growth rate): A (Cancer cell growth rate is less than 20%)

## CCOC(=O)C1(C(=O)OCC)CC(/C=C/C2=[N+](CC)c3ccccc3C2(C)C)=CC(=C/C=C2/N(CC)c3ccccc3C2(C)C)/C1 [Compound 37]
[1]
  Excitation wavelength λex: 650 nm
  Fluorescence wavelength λem: 770 nm
[3]
  Cancer cell growth rate (%): 4.8%
  Evaluation (cancer cell growth rate): A (Cancer cell growth rate is less than 20%)

## CC(C)CCN1/C(=C/C=C/C=C/C2=[N+](CCC(C)C)c3ccc4ccccc4c3C2(C)C)C(C)(C)c2c1ccc1ccccc21 [Compound 55]
[1]
  Excitation wavelength λex: 688 nm
  Fluorescence wavelength λem: 715 nm
[2]; K562, 10 μg/ml
  ALDH(+) Superiority evaluation: A (The value of the growth rate of ALDH (+)/the growth rate of ALDH (−) is less than 0.8)
  ALDH(+)/ALDH(−): 0.33

## CCN1/C(=C/C=C/C=C/C=C/C2=[N+](CC)c3ccccc3C2(C)C)C(C)(C)c2ccccc21 [Compound 32]
[2]; K562, 10 μg/ml
  ALDH(+) Superiority evaluation: A (The value of the growth rate of ALDH (+)/the growth rate of ALDH (−) is less than 0.8)
  ALDH(+)/ALDH(−): 0.32

## CCN1C=C/C(=C/C=C/c2ccc3ccccc3[n+]2CC)c2ccccc21.[I-] [Compound 45]
[1]
  Excitation wavelength λex: 665 nm
  Fluorescence wavelength λem: 681 nm
[3]
  Cancer cell growth rate (%): 28.5%
  Evaluation (cancer cell growth rate): B (Cancer cell growth rate is 20% or more and less than 50%)

## O=C(O)CN1/C(=C\C2=C(Cl)C(=C/c3sc4ccccc4[n+]3CC(=O)O)/CCC2)Sc2ccccc21 [Comparative compound 3, reference compound]
[2]; K562, 1 μg/ml
  ALDH(+) Superiority evaluation: C (The value of the growth rate of ALDH (+)/the growth rate of ALDH (−) is 0.95 or more)
  ALDH(+)/ALDH(−): 0.79
[3]
  Cancer cell growth rate (%): 93.0%
  Evaluation (cancer cell growth rate): C (Cancer cell growth rate is 50% or more)
[4]
  Cancer cell growth rate (%): 101%
  Evaluation (cancer cell growth rate): C (Cancer cell growth rate is 50% or more)

Source: patent US10278965B2, “Method of detecting cancer stem cell, method of screening cancer stem cell, and method of inhibiting cancer stem cell” (CANON KABUSHIKI KAISHA, priority 2012, dated 2019)
